From patent publication US8815872B2, “Macrocyclics pyrimidines as aurora kinase inhibitors” (Merck Patent GmbH, priority 2008, dated 2014)
Values joined by “and” are separate entries in the source; they are usually repeats but may differ in a detail not shown here. Equal values may be shown once.

Legend:
Assay in all cases: Other kinases, inhibition at 1 μM (Table 3)
Format in all cases: biochemical
CK2 = test system: CK2
Method: (§1) The Aurora and other kinase assays described here were performed on two Caliper Life Sciences systems, the LC3000 and the Desktop Profiler. These provide data on enzyme activity via measurement of the relative amounts of phosphorylated or unphosphorylated fluorescently labelled substrate peptide at the end of an enzymatic reaction. These different states of peptide are resolved by applying a potential difference across the sample. The presence of a charged phosphate group on the product (as opposed to the substrate) causes a different peptide mobility between the two peptides. This is visualized by excitation of a fluorescent label on the substrate and product peptides and represented as peaks within the analysis software.
(§2) The Desktop Profiler utilizes the same principal as the LC 3000 for calculating percentage conversion of a substrate to product. Caliper Life Sciences provided proprietary flash frozen pre-made 384 well plates containing selected kinases. Each column in the 384 well plate contained a particular selected kinase. A second plate, the ‘substrate plate’ contained a mix of fluorescently labeled peptide substrate and ATP. These were arranged in columns so that transfer for substrate plate to enzyme plate provided the correct enzyme with the correct substrate/ATP concentration.
(§3) Compounds were added to a thawed enzyme plate in the desired format, in single concentrations. Reactions were initiated by transfer of the ubstrate/ATP mix from the substrate plate. The enzyme plate was incubated for 90 mins at 25 °C. The reaction was stopped by addition of […] of Stop Buffer (100 mM HEPES pH 7.5, 0.015% Brij-35, 10 mM EDTA (Sigma, E7889)).
(§4) Plates were read in a manner identical to that of the LC3000, and the ratio between substrate and product peaks provided the activity of the enzyme in that well. This was best represented by a plate heat map which colors each well by percent inhibition as compared to positive and negative controls (no inhibitors and no ATP respectively).

SAPK2-alpha = biological target: T1, SAPK2-alpha (Homo sapiens, UniProt Q16539)
T1 construct: purchased Caliper Life Sciences
Method: as §1, §2, §3, §4

PRAK = biological target: T2, PRAK (Homo sapiens, UniProt Q8IW41)
T2 construct: purchased Caliper Life Sciences
Method: as §1, §2, §3, §4

PBK = biological target: T3, PBK (Homo sapiens, UniProt Q96KB5)
T3 construct: purchased Caliper Life Sciences
T3 sequence (Q96KB5 whole entry, species assumed): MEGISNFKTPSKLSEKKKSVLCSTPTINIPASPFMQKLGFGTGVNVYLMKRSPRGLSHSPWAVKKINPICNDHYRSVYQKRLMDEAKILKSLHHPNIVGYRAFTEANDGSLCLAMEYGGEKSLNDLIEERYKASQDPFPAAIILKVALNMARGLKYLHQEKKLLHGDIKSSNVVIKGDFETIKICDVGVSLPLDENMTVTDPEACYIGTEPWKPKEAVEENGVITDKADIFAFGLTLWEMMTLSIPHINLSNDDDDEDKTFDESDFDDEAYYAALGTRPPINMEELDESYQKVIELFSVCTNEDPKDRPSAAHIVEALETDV
Method: as §1, §2, §3, §4

CDK2/cyclin A = biological target: T4, CDK2/cyclin A (Homo sapiens, UniProt P24941)
T4 construct: purchased Caliper Life Sciences
Method: as §1, §2, §3, §4

PKD2 = biological target: T5, PKD2 (Homo sapiens, UniProt Q9BZL6)
T5 construct: purchased Caliper Life Sciences
Method: as §1, §2, §3, §4

BRSK2 = biological target: T6, BRSK2 (Homo sapiens, UniProt Q8IWQ3)
T6 construct: purchased Caliper Life Sciences
T6 sequence (Q8IWQ3 whole entry, species assumed): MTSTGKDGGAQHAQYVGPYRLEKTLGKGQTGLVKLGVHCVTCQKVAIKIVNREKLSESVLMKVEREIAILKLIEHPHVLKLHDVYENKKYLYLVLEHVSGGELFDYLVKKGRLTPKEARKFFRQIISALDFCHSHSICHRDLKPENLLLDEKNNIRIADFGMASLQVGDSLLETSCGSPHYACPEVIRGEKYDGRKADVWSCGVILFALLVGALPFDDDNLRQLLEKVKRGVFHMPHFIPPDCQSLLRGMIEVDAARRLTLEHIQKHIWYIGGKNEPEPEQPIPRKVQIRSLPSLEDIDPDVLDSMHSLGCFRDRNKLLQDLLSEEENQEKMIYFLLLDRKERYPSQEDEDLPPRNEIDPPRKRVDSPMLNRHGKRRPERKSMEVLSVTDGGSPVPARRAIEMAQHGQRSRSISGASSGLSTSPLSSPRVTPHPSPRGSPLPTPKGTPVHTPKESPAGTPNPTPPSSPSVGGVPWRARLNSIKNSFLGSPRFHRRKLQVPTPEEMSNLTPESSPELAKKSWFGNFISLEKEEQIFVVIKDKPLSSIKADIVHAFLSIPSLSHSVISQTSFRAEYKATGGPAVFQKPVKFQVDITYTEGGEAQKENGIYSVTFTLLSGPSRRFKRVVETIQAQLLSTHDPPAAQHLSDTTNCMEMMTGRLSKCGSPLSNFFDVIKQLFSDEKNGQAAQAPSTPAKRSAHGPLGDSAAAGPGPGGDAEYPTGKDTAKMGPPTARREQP
Method: as §1, §2, §3, §4

CK1-delta = biological target: T7, CK1-delta (Homo sapiens, UniProt P48730)
T7 construct: purchased Caliper Life Sciences
Method: as §1, §2, §3, §4

JNK1-alpha-1 = biological target: T8, JNK1-alpha-1 (Homo sapiens, UniProt P45983)
T8 construct: purchased Caliper Life Sciences
T8 sequence (P45983 1-384 isoform P45983-2, species assumed): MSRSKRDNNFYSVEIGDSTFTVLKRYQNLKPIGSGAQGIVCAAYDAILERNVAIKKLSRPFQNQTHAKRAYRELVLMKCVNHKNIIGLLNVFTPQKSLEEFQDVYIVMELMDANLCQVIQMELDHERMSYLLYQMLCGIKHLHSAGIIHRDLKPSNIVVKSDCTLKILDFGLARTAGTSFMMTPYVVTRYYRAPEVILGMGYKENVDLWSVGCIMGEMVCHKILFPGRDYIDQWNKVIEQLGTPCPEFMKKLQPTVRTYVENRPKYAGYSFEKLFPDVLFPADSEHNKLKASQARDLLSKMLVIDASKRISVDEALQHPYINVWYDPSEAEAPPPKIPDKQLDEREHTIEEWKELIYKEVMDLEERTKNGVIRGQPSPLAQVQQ
Method: as §1, §2, §3, §4

Pim-3 = biological target: T9, Pim-3 (Homo sapiens, UniProt Q86V86)
T9 construct: purchased Caliper Life Sciences
Method: as §1, §2, §3, §4

Pim-1 = biological target: T10, Pim-1 (Homo sapiens, UniProt P11309)
T10 construct: purchased Caliper Life Sciences
Method: as §1, §2, §3, §4

GSK3-beta = biological target: T11, GSK3-beta (Homo sapiens, UniProt P49841)
T11 construct: purchased Caliper Life Sciences
T11 sequence (P49841 whole entry, species assumed): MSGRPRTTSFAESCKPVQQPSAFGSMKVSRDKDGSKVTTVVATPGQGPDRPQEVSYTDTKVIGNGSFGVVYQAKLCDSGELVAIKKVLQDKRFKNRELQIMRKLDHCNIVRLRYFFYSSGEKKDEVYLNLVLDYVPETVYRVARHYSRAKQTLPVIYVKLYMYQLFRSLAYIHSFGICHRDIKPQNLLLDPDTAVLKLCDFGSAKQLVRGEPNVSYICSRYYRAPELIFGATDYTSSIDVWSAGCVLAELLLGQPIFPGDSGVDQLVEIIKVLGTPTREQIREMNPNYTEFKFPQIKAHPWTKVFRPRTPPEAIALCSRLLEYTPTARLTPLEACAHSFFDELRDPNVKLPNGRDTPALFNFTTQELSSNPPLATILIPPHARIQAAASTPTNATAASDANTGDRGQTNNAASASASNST
Method: as §1, §2, §3, §4

PAK5 = biological target: T12, PAK5 (Homo sapiens, UniProt Q9P286)
T12 construct: purchased Caliper Life Sciences
Method: as §1, §2, §3, §4

MNK-2-alpha = biological target: T13, MNK-2-alpha (Homo sapiens, UniProt Q9HBH9)
T13 construct: purchased Caliper Life Sciences
Method: as §1, §2, §3, §4

MAPKAP-K2 = biological target: T14, MAPKAP-K2 (Homo sapiens, UniProt P49137)
T14 construct: purchased Caliper Life Sciences
Method: as §1, §2, §3, §4

PRK2 = biological target: T15, PRK2 (Homo sapiens, UniProt Q16513)
T15 construct: purchased Caliper Life Sciences
Method: as §1, §2, §3, §4

PDK1 = biological target: T16, PDK1 (Homo sapiens, UniProt O15530)
T16 construct: purchased Caliper Life Sciences
T16 sequence (O15530 whole entry): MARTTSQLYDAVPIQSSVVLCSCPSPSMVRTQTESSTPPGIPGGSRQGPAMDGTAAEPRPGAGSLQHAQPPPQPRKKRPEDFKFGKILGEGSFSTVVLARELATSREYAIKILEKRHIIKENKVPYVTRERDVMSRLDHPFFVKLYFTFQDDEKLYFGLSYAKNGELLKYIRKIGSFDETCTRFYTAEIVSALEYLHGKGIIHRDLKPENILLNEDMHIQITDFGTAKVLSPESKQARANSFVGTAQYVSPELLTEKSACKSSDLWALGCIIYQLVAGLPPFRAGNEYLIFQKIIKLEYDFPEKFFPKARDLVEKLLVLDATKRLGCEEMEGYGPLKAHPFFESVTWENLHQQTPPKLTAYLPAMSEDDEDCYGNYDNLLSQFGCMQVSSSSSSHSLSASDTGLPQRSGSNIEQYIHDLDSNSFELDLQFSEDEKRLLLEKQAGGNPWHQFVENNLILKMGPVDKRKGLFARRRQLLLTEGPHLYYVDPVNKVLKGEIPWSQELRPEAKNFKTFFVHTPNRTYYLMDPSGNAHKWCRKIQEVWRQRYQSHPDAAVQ
Method: as §1, §2, §3, §4

PKC-zeta = biological target: T17, PKC-zeta (Homo sapiens, UniProt Q05513)
T17 construct: purchased Caliper Life Sciences
T17 sequence (Q05513 whole entry): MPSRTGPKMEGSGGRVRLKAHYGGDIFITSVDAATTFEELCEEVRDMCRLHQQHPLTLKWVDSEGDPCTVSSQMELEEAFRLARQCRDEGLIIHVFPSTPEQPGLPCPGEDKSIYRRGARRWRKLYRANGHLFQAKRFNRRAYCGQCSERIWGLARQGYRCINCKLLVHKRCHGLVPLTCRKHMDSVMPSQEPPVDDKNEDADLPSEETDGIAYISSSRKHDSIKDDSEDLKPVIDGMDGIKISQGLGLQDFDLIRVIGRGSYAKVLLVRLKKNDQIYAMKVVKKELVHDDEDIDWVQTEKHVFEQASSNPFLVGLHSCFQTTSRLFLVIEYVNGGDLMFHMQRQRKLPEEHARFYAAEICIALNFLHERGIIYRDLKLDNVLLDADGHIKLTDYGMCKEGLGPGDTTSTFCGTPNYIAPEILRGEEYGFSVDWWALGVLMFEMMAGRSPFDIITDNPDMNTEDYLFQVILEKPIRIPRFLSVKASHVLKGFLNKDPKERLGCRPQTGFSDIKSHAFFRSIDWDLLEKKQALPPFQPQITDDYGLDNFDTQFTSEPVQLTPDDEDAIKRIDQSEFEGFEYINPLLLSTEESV
Method: as §1, §2, §3, §4

LCK = biological target: T18, LCK (Homo sapiens, UniProt P06239)
T18 construct: purchased Caliper Life Sciences
Method: as §1, §2, §3, §4

PKB-alpha = biological target: T19, PKB-alpha (Homo sapiens, UniProt P31749)
T19 construct: purchased Caliper Life Sciences
Method: as §1, §2, §3, §4

SAPK3 = biological target: T20, SAPK3 (Homo sapiens, UniProt P53778)
T20 construct: purchased Caliper Life Sciences
Method: as §1, §2, §3, §4

BTK = biological target: T21, BTK (Homo sapiens, UniProt Q06187)
T21 construct: purchased Caliper Life Sciences
Method: as §1, §2, §3, §4

MSK1 = biological target: T22, MSK1 (Homo sapiens, UniProt O75582)
T22 construct: purchased Caliper Life Sciences
Method: as §1, §2, §3, §4

PLK1 = biological target: T23, PLK1 (Homo sapiens, UniProt P53350)
T23 construct: purchased Caliper Life Sciences
T23 sequence (P53350 whole entry, species assumed): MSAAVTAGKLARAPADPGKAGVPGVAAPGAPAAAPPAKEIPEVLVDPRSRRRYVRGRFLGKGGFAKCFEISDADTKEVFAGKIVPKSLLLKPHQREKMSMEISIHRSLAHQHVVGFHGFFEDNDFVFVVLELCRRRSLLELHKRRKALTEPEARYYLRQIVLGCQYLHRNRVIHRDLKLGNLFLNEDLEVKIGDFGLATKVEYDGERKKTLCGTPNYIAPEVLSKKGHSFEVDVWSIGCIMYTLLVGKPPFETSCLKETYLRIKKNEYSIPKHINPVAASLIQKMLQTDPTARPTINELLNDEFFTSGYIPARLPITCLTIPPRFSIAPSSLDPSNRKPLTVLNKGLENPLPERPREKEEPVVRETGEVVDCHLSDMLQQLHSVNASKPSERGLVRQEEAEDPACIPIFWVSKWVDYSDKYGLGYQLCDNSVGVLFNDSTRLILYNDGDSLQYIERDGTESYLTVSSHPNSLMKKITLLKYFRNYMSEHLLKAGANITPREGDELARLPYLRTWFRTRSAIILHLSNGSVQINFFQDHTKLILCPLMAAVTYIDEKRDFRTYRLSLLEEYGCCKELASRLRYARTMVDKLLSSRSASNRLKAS
Method: as §1, §2, §3, §4

EF2K = biological target: T24, EF2K (Homo sapiens, UniProt O00418)
T24 construct: purchased Caliper Life Sciences
Method: as §1, §2, §3, §4

SRPK1 = biological target: T25, SRPK1 (Homo sapiens, UniProt Q96SB4)
T25 construct: purchased Caliper Life Sciences
Method: as §1, §2, §3, §4

PAK4 = biological target: T26, PAK4 (Homo sapiens, UniProt O96013)
T26 construct: purchased Caliper Life Sciences
Method: as §1, §2, §3, §4

CAMKKb = biological target: T27, CAMKKb (Homo sapiens, UniProt Q96RR4)
T27 construct: purchased Caliper Life Sciences
Method: as §1, §2, §3, §4

AMPK = test system: AMPK
Method: as §1, §2, §3, §4

EphA2 = biological target: T28, EphA2 (Homo sapiens, UniProt P29317)
T28 construct: purchased Caliper Life Sciences
T28 sequence (P29317 24-976, species assumed): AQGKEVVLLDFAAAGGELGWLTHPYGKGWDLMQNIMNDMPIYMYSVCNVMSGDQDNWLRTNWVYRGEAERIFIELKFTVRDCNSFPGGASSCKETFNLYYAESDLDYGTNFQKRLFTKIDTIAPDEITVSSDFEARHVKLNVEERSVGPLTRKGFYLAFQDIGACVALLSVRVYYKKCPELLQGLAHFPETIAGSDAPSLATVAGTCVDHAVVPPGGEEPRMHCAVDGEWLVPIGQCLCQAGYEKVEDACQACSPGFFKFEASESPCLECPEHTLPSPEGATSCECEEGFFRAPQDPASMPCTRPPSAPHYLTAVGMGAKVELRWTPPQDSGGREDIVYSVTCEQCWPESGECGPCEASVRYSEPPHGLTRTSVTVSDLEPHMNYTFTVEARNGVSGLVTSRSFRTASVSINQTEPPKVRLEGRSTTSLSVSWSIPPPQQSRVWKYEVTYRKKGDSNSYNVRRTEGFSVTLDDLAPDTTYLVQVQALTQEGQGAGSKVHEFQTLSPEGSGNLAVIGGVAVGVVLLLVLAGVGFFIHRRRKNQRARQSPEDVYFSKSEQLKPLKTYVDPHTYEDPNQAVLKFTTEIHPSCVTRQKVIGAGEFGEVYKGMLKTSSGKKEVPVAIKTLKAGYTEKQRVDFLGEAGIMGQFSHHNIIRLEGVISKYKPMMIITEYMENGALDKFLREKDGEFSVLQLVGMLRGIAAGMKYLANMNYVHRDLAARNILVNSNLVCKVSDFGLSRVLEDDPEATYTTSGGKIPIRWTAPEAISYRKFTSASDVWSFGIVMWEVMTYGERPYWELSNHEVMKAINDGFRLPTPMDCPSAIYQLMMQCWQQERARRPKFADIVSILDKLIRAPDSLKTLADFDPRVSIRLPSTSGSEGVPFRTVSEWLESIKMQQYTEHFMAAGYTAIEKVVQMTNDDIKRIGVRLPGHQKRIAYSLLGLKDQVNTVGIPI
Method: as §1, §2, §3, §4

PKB-beta = biological target: T29, PKB-beta (Homo sapiens, UniProt P31751)
T29 construct: purchased Caliper Life Sciences
Method: as §1, §2, §3, §4

smMLCK = test system: smMLCK
Method: as §1, §2, §3, §4

DYRK3 = biological target: T30, DYRK3 (Homo sapiens, UniProt O43781)
T30 construct: purchased Caliper Life Sciences
Method: as §1, §2, §3, §4

MAPK1 = test system: MAPK1
Method: as §1, §2, §3, §4

HIPK2 = biological target: T31, HIPK2 (Homo sapiens, UniProt Q9H2X6)
T31 construct: purchased Caliper Life Sciences
Method: as §1, §2, §3, §4

| SMILES | % inhibition CK2 (CK2) [%] | inhibition at 1 µM (SAPK2-alpha) [%] | % inhibition PRAK (PRAK) [%] | % inhibition PBK (PBK) [%] | % inhibition CDK2/cyclin A (CDK2/cyclin A) [%] | % inhibition PKD2 (PKD2) [%] | inhibition at 1 µM (BRSK2) [%] | % inhibition CK1-delta (CK1-delta) [%] | inhibition at 1 µM (JNK1-alpha-1) [%] | % inhibition Pim-3 (Pim-3) [%] | % inhibition Pim-1 (Pim-1) [%] | inhibition at 1 µM (GSK3-beta) [%] | % inhibition PAK5 (PAK5) [%] | % inhibition MNK-2-alpha (MNK-2-alpha) [%] | % inhibition MAPKAP-K2 (MAPKAP-K2) [%] | inhibition at 1 µM (PRK2) [%] | % inhibition PDK1 (PDK1) [%] | % inhibition PKC-zeta (PKC-zeta) [%] | inhibition at 1 µM (LCK) [%] | % inhibition PKB-alpha (PKB-alpha) [%] | other results |
| --- | --- | --- | --- | --- | --- | --- | --- | --- | --- | --- | --- | --- | --- | --- | --- | --- | --- | --- | --- | --- | --- |
| NC(=O)[C@H]1[C@H]2C[C@H]3[C@H]1Nc1nc(ncc1F)Nc1cccc(c1)CSS[C@@H]3C2 [Example 10] | 91 | 89 | 84 | 99 | 94 | 73 | 26 | 92 | 14 | 63 | 61 | 19 | 72 | 82 | 88 | 43 | 73 | 99 | 14 | 93 | inhibition at 1 µM (SAPK3): 72%; % inhibition BTK (BTK): 2%; % inhibition MSK1 (MSK1): 77%; % inhibition PLK1 (PLK1): 4% and 12%; inhibition at 1 µM (EF2K): 62%; inhibition at 1 µM (SRPK1): 65%; % inhibition PAK4 (PAK4): 38%; % inhibition CAMKKb (CAMKKb): 73%; % inhibition AMPK (AMPK): 38%; inhibition at 1 µM (EphA2): 25%; % inhibition PKB-beta (PKB-beta): 101%; % inhibition smMLCK (smMLCK): 39%; inhibition at 1 µM (DYRK3): 78%; % inhibition MAPK1 (MAPK1): 78%; inhibition at 1 µM (HIPK2): 23% |
| Fc1cnc2nc1NC1CCCC(C1)OC/C=C\COc1cccc(c1)N2 (single isomer, unassigned) [Example 33, (16Z)-6-fluoro-14,19-dioxa-2,4,8,26-tetraazatetracyclo[18.3.1.1˜3,7˜0.1˜9,13˜]hexacosa-1(24),3(26),4,6,16,20,22-heptaene] | 96 | 76 | 80 | 89 | 60 | 78 | 81 | 85 | 75 | 84 | 65 | 57 | 92 | 81 | 100 | 97 | 91 | 104 | 54 | 85 | inhibition at 1 µM (SAPK3): 87%; % inhibition BTK (BTK): 37%; % inhibition MSK1 (MSK1): 96%; % inhibition PLK1 (PLK1): 63% and 92%; inhibition at 1 µM (EF2K): 78%; inhibition at 1 µM (SRPK1): 83%; % inhibition PAK4 (PAK4): 81%; % inhibition CAMKKb (CAMKKb): 81%; % inhibition AMPK (AMPK): 76%; inhibition at 1 µM (EphA2): 81%; % inhibition PKB-beta (PKB-beta): 85%; % inhibition smMLCK (smMLCK): 92%; inhibition at 1 µM (DYRK3): 99%; % inhibition MAPK1 (MAPK1): 91%; inhibition at 1 µM (HIPK2): 68% |
